Activity calls are given as the source filed them.
Experiments:
[1] = molecular target: T1, G-protein coupled receptor 35 (Homo sapiens, UniProt Q9HC97); assay: SAR analysis of Agonists of the GPR35 Receptor using an Image-Based Assay - Set 4. [Related pubchem assays (depositor defined):AID2013, AID2026]; assay type: functional
Cannabinoid receptor 1 [2] = molecular target: T2, Cannabinoid receptor 1 (Homo sapiens, UniProt P21554); assay: SAR analysis of agonists of the Cannabinoid Receptor 1 using an Image-Based Assay - Set 4. [Related pubchem assays (depositor defined):AID2013, AID2026]; assay type: functional
[3] = molecular target: T1, G-protein coupled receptor 35; assay: SAR analysis of Antagonists of the GPR35 Receptor using an Image-Based Assay - Set 6. [Related pubchem assays (depositor defined):AID2013, AID2026]; assay type: functional
Cannabinoid receptor 1 [4] = molecular target: T2, Cannabinoid receptor 1; assay: SAR analysis of antagonists of the Cannabinoid Receptor 1 using an Image-Based Assay - Set 4. [Related pubchem assays (depositor defined):AID2013, AID2026]; assay type: functional
[5] = molecular target: G-protein coupled receptor 55 (Homo sapiens, UniProt Q9Y2T6); assay: SAR Analysis of Selective Antagonists of GPR55 using an Image-Based Assay - Set 4. [Related pubchem assays (depositor defined):AID2013, AID2026]; assay type: functional;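 note: antagonism of response to 5 µM lysophosphatidylinositol agonist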
Cannabinoid receptor 2 [6] = molecular target: T3, Cannabinoid receptor 2 (Homo sapiens, UniProt P34972); assay: SAR analysis of antagonists of the Cannabinoid Receptor 2 using an Image-Based Assay - Set 3. [Related pubchem assays (depositor defined):AID2013, AID2026]; assay type: functional
Cannabinoid receptor 2 [7] = molecular target: T3, Cannabinoid receptor 2; assay: SAR analysis of agonists of the Cannabinoid Receptor 2 using an Image-Based Assay - Set 3. [Related pubchem assays (depositor defined):AID2013, AID2026]; assay type: functional
[8] = molecular target: T4, Probable nicotinate-nucleotide adenylyltransferase (Staphylococcus aureus (strain N315), UniProt P65502); assay type: functional, Staphylococcus aureus subsp. aureus N315;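 for IC50 Mean: confirmatory dose-response retesting of NadD inhibitor hits first found in an ultra-high-throughput screen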
[9] = molecular target: T4, Probable nicotinate-nucleotide adenylyltransferase; assay type: functional, Staphylococcus aureus subsp. aureus N315; settings: read-out: IC50_Mean
[10] = molecular target: T5, Delta-type opioid receptor (Homo sapiens, UniProt P41143); assay: HTS Image-Based Screen for Antagonists of the DOR Receptor. [Related pubchem assays (depositor defined):AID1777, AID1785, AID1786, AID2133]; assay type: functional
Mu-type opioid receptor = Mu-type opioid receptor (Homo sapiens, UniProt P35372); assay: HTS Image-Based Screen for Agonists of the MOR Receptor. [Related pubchem assays (depositor defined):AID1777, AID1785, AID1786, AID2133]; assay type: functional;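 note: imaging of beta-arrestin GFP recruitment into spots after receptor activation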
[11] = molecular target: T5, Delta-type opioid receptor; assay: HTS Image-Based Screen for Agonists of the DOR Receptor. [Related pubchem assays (depositor defined):AID1777, AID1786, AID2133]; assay type: functional
[12] = molecular target: T6, Kappa-type opioid receptor (Homo sapiens, UniProt P41145); assay type: functional
Beta-galactosidase = Beta-galactosidase (Escherichia coli, UniProt Q8VNN2); assay type: functional
[13] = molecular target: T6, Kappa-type opioid receptor; assay type: functional; remark: listed apart in the source
BJ [14] = assay: BJ-TERT fibroblast viability loss – cell-based, RAS-independent, luminescence, dose response (AID 1933); assay type: functional; settings: Homo sapiens
BJ [15] = assay: cells; assay type: functional, cell-based; settings: Homo sapiens
Ion channel NompC = Ion channel NompC (Danio rerio, UniProt Q7T1G6); assay: Dose response cell-based high-throughput screening assay for agonists of the transient receptor potential channel N1 (TRPN1). [Related pubchem assays (depositor defined):AID1424, AID1448]; assay type: functional
[16] = Trypanosoma cruzi growth suppression in host cells – NIH3T3 host cells, beta-gal luminescence, confirmation (AID 2044); assay type: functional, cell-based;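 note: intracellular parasites grown in NIH/3T3 mouse fibroblasts as host cells; luminescent beta-galactosidase reporter signal from transgenic T. cruzi replicating inside host cells; inhibitors lower the luminescence signal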
[17] = microbe, parasite or virus in culture; assay type: functional; settings: Mycobacterium tuberculosis
Mucolipin-3 = molecular target: T7, Mucolipin-3 (Homo sapiens, UniProt Q8TDD5); assay: Fluorescence counterscreen assay for […] agonists: dose response cell-based high-throughput screening assay to identify agonists of the transient receptor potential channel ML3 (TRPML3). [Related pubchem assays: 1424, 1448 ]; assay type: functional
T7 sequence (Q8TDD5 whole entry): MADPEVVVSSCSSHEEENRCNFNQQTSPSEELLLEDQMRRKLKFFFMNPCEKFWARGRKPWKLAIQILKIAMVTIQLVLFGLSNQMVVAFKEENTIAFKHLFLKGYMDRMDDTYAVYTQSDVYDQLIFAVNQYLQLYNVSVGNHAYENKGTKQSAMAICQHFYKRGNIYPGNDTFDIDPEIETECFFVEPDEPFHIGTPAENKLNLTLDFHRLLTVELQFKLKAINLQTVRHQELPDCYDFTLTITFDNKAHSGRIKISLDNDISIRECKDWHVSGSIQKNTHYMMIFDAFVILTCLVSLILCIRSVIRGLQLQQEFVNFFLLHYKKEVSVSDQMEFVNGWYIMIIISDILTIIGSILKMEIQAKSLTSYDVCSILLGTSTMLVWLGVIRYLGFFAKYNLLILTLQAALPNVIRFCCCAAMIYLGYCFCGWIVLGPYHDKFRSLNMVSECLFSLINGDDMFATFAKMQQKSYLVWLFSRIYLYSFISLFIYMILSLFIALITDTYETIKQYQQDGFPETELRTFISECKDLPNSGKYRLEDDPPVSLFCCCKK

[18] = NIH3T3 cell viability loss – ATP luminescence, mouse fibroblasts, counter-screen, dose response (AID 2010); assay type: functional, cell-based;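 note: cells exposed to compound for about 90 hours before reading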
BJ [19] = assay: BJ-TERT-LT-ST fibroblast viability loss – cell-based, RAS-independent, luminescence, dose response (AID 1935); assay type: functional; settings: Homo sapiens;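 note: BJ fibroblasts immortalized with TERT plus LT and ST oncogenes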
[20] = DRD fibroblast viability loss – cell-based, non-viral oncogenic, luminescence, dose response (AID 1934); assay type: functional; settings: Homo sapiens

T1 sequence (Q9HC97 whole entry): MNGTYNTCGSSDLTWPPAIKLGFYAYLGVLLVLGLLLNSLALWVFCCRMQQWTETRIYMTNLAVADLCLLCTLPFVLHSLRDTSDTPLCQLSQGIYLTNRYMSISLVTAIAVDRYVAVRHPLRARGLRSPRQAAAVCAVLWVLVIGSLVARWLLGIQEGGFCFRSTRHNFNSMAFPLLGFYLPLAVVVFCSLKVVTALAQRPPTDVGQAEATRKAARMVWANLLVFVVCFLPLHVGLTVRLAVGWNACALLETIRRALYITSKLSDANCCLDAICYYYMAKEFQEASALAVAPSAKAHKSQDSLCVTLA
T3 sequence (P34972 whole entry): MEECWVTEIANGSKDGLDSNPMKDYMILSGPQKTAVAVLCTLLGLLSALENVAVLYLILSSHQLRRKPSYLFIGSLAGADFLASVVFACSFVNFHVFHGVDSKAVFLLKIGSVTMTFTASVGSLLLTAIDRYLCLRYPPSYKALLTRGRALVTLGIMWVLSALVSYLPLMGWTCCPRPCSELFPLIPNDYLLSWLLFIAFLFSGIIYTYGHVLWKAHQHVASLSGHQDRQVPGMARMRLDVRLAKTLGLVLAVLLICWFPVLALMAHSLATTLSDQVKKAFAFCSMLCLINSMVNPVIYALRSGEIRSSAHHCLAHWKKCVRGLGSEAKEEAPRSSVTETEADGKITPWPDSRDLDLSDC
T2 sequence (P21554 whole entry): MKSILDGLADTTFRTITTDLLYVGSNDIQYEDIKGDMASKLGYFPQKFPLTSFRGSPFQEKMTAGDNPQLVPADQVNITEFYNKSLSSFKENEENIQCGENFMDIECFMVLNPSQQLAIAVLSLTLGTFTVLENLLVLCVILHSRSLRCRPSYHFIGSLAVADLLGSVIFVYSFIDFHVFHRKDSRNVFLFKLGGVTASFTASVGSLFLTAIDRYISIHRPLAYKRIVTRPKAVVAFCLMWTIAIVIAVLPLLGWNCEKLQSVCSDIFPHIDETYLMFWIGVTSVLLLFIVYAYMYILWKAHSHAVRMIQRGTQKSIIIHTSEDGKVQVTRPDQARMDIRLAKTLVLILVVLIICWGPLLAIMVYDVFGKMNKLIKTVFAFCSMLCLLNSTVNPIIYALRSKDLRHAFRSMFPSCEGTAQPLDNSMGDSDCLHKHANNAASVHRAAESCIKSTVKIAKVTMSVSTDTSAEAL
T4 sequence (P65502 whole entry): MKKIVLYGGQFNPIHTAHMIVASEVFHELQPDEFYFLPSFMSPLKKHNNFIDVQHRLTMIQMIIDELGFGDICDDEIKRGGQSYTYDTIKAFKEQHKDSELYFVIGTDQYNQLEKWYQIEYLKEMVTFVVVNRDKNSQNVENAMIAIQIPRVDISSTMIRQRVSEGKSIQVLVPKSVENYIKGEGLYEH
Chain of G-protein coupled receptor 55 (Q9Y2T6 whole entry): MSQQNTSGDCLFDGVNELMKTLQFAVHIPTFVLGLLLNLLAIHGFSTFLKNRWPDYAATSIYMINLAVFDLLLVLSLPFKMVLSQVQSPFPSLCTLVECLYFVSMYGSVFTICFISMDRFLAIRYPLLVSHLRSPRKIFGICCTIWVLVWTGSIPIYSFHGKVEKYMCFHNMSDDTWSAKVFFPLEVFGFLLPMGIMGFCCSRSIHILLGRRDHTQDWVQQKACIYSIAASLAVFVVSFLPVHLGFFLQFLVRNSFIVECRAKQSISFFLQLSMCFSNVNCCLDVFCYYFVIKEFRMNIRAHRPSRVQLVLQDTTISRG
T5 sequence (P41143 whole entry): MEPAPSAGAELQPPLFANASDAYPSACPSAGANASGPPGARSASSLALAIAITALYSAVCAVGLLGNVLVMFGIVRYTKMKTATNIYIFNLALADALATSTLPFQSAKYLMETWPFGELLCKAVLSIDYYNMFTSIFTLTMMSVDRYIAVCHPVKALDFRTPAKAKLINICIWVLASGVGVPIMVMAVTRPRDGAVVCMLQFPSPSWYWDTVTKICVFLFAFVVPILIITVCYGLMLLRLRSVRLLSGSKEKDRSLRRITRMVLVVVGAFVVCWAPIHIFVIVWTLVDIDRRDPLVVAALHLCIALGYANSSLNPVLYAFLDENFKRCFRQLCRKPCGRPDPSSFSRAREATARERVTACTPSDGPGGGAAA
T6 sequence (P41145 whole entry): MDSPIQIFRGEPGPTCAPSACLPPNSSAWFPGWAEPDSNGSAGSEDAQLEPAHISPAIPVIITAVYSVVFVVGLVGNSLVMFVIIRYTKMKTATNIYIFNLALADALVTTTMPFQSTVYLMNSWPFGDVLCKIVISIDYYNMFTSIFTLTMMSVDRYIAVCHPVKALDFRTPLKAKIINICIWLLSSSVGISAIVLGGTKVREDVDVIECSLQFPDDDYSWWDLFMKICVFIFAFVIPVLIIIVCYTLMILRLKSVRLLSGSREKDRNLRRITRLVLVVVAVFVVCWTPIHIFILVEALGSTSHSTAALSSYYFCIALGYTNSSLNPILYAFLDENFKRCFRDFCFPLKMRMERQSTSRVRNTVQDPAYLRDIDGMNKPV
Chain of Beta-galactosidase (Q8VNN2 whole entry): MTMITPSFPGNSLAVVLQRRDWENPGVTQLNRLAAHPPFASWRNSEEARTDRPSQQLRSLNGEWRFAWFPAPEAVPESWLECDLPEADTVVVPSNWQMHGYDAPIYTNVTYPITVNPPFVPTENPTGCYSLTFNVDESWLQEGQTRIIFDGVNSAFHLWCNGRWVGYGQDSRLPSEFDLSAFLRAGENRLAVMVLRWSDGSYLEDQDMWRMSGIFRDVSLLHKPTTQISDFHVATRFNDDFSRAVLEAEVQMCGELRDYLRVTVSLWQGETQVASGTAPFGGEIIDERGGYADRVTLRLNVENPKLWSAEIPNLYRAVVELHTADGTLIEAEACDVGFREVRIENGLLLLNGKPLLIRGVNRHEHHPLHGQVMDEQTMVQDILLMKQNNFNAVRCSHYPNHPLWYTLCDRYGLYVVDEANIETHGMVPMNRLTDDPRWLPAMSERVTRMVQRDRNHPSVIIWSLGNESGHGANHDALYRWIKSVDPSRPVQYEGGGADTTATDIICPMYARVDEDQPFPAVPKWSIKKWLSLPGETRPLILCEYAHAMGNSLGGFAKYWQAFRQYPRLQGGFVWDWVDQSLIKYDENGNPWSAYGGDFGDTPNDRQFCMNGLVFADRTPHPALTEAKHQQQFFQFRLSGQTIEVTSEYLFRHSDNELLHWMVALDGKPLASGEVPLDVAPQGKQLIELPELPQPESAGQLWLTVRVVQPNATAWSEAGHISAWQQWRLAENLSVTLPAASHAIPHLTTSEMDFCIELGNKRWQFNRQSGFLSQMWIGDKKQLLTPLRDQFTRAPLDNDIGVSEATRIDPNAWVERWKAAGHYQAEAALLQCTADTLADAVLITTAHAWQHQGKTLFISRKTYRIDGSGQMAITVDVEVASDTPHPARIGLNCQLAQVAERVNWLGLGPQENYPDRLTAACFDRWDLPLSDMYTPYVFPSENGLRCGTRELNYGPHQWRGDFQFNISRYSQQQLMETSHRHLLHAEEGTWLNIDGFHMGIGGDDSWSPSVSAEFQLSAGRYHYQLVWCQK
Chain of Mu-type opioid receptor (P35372 whole entry): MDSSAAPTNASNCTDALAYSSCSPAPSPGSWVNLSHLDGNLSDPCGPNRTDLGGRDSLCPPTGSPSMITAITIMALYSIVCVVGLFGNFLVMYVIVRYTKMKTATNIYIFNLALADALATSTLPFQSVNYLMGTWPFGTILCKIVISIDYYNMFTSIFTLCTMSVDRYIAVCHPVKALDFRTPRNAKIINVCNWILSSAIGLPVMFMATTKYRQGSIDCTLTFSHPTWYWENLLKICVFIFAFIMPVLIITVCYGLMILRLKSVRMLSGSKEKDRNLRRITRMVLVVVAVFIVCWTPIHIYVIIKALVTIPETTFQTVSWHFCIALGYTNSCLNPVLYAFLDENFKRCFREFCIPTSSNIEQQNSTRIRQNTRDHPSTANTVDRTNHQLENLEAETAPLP

For `O=C(Nc1ccc(S(=O)(=O)Nc2nccs2)cc1)c1cc(-c2ccccc2)nc2ccccc12`, the EC50 [1] was > 32 µM (inactive), the EC50 (Cannabinoid receptor 1 [2]) was > 32 µM (inactive) and the IC50 [3] was > 32 µM (inactive). For the same compound, the IC50 (Cannabinoid receptor 1 [4]) was 4.77 µM (active), the IC50 [5] was 5.75 µM (active) and the IC50 (Cannabinoid receptor 2 [6]) was > 32 µM (inactive). For the same compound, the EC50 (Cannabinoid receptor 2 [7]) was > 32 µM (inactive), the IC50 [8] was 6.12 µM (active) and the IC50 [9] was 20 µM (active).

With `CCOc1ccc2nc(N3C(=O)CNC3=S)sc2c1` the IC50 [10] was > 32 µM (inactive), the EC50 (Mu-type opioid receptor) was > 32 µM (inactive) and the EC50 [11] was > 32 µM (inactive). The IC50 [12] was 16.4 µM (active), the EC50 (Beta-galactosidase) was > 31.5 µM (inactive) and the IC50 [13] was > 32 µM.

In the case of `CCN(CC)c1ccc(/C=C2\SC(=O)N(C(C)C)C2=O)o1`, the EC50 (BJ [14]) is reported as 11.7 µM (active), the EC50 (BJ [15]) is reported as 20.5 µM (active) and the EC50 (Ion channel NompC) is reported as > 9.97 µM (inactive). For the same compound, the EC50 [16] was 2.09 µM (active), the CC50 [17] was 38.7 µM (active) and the EC50 (Mucolipin-3) was > 9.97 µM (not active). The EC50 [18] was 18.4 µM (active), the EC50 (BJ [19]) was > 75 µM (inconclusive) and the EC50 [20] was 35.7 µM (active).

In the case of `N=c1c(C(=O)NCCN2CCOCC2)cc2c(=O)n3ccccc3nc2n1C1CCCC1`, the EC50 [1] is reported as > 32 µM (inactive), the EC50 (Cannabinoid receptor 1 [2]) is reported as > 32 µM (inactive) and the IC50 [3] is reported as > 32 µM (inactive). For the same compound, the IC50 (Cannabinoid receptor 1 [4]) was > 32 µM (inactive), the IC50 [5] was > 32 µM (inactive) and the IC50 (Cannabinoid receptor 2 [6]) was > 32 µM (inactive). The EC50 (Cannabinoid receptor 2 [7]) was 8.59 µM (active).
